According to PMC10378394 (Current Issues in Molecular Biology, 2023):

Columns and labels:
EphB2(h) = EphB2(h) (Homo sapiens, UniProt P29323); assay: Eurofins kinase assay
ARAF = target: T1, ARAF (Homo sapiens, UniProt P10398); assay: Eurofins kinase assay
T1 sequence (P10398 1-606): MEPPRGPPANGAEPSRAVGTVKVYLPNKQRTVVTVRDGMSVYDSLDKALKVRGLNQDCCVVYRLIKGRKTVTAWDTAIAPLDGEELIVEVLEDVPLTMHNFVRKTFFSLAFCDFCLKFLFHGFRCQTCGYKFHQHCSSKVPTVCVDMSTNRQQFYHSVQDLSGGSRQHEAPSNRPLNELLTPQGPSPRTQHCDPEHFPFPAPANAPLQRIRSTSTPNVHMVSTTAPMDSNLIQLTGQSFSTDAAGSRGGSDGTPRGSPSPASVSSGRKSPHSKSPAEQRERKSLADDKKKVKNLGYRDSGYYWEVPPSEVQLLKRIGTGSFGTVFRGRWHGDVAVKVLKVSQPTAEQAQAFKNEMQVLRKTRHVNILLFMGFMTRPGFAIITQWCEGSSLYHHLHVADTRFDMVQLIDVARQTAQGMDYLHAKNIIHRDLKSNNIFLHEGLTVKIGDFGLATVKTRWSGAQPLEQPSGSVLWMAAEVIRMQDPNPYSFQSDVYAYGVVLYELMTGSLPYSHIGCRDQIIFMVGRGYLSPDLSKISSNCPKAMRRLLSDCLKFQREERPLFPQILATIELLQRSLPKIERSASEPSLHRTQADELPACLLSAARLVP

IGF-1R(h) = IGF-1R(h) (Homo sapiens, UniProt P08069); assay: Eurofins kinase assay
PI3Kinase(p110a/p85a)(h) = PI3Kinase(p110a/p85a)(h) (Homo sapiens, UniProt P42336); assay: Eurofins kinase assay
PKBα(h) = PKBα(h) (Homo sapiens, UniProt P31749); assay: Eurofins kinase assay
CaMKIIβ(h) = CaMKIIβ(h) (Homo sapiens, UniProt Q13554); assay: Eurofins kinase assay
EphB4(h) = EphB4(h) (Homo sapiens, UniProt P54760); assay: Eurofins kinase assay
CaMKIV(h) = CaMKIV(h) (Homo sapiens, UniProt Q16566); assay: Eurofins kinase assay
BRAF (V600E) = BRAF (V600E) (Homo sapiens, UniProt P15056, V600E); assay: Eurofins kinase assay
NEK2(h) = NEK2(h) (Homo sapiens, UniProt P51955); assay: Eurofins kinase assay
IL-10 = assay: Western blot of IL-10; type: in vivo, mouse; settings: normalized to β-actin
Bmx(h) = Bmx(h) (Homo sapiens, UniProt P51813); assay: Eurofins kinase assay
MC38 tumor tissue = assay: Immunofluorescence of tumor tissue; type: in vivo, mouse; settings: MC38 tumors of treated mice
Description: Immunofluorescence staining was performed on tumor tissues. First, tumor tissue fixation was performed using 4% paraformaldehyde (Sigma-Aldrich, #HT5011). Next, heat-induced epitope retrieval was performed by incubating the tissue in 10 mM sodium citrate for 10 min. Subsequently, permeabilization was achieved by treating the tissue with 0.2% Triton X-100 (Sigma-Aldrich, #X100) for 5 min. To block nonspecific binding, the tissue was incubated in 5% skim milk for 40 min. Primary antibodies, including FOXP3 (eBioscience, San Diego, CA, USA, #11-5773-82), CD8 (eBioscience #53-0081-82), CD31 (Abcam, Cambridge, UK, #ab28364), F480 (Abcam #ab6640), CD163 (Abcam #ab182422), and CD206 (Abcam #ab64693), were used. The secondary antibodies used were FITC-conjugated AffiniPure F(ab’)2 fragment goat anti-rat IgG (H + L) (Jackson ImmunoResearch, West Grove, PA, USA, #112-096-003) and Cy3-conjugated AffiniPure F(ab’)2 fragment goat anti-rabbit IgG (H + L) (Jackson ImmunoResearch #111-166-003). The stained tissue was mounted using ProLong™ Gold Antifade Mountant with DAPI (Invitrogen, Waltham, MA, USA) #14-5773-82). Fluorescent images of the samples were captured using the Agilent BioTek Cytation 1 device. The images were analyzed using the Gen5 program (Version3, BioTek, Winooski, VT, USA) to extract relevant data and perform quantitative analysis.

PAR-1Bα(h) = PAR-1Bα(h) (Homo sapiens, UniProt Q7KZI7); assay: Eurofins kinase assay
[1] = system: HCT116 (KRAS G13D) xenograft; assay: In vivo efficacy, xenograft; design: species or system BALB/c nude mice; settings: 16 days
Description: (§1) Human-derived colorectal cancer cell lines, LS513, HCT-116, and HT29, were subcutaneously transplanted into 6-week-old female BALB/c nude mice to establish tumor models. Additionally, the mouse cancer cell line MC38 was subcutaneously transplanted into 6-week-old female and C57BL/6 mice to induce tumor formation. […]. The treatments were administered orally once daily for 2 weeks based on the growth rate observed in the vehicle group. Tumor volume was evaluated three times a week using the formula Tumor volume (TV) = (tumor short diameter ^2 × tumor long diameter)/2. The body weight of the mice was measured three times a week to assess potential toxicity in vivo. […]

[2] = system: LS513 (KRAS G12D) xenograft; assay: In vivo efficacy, xenograft; design: species or system BALB/c nude mice; settings: day 17
Description: as §1

[3] = system: HT29 (BRAF V600E) xenograft; assay: In vivo efficacy, xenograft; design: species or system BALB/c nude mice
Description: as §1

HT29 (BRAF V600E) = assay: Cell proliferation assay (CellTiter-Glo); settings: Homo sapiens, HT-29, 72 h
Description: To assess cell viability, the CellTiter-Glo Luminescent Cell Viability Assay Reagent (Promega, Fitchburg, WI, USA) was added to each well. The assay measured ATP levels as an indicator of cell viability. All data points were normalized to the control samples treated with dimethyl sulfoxide when determining IC50 values. Statistical calculations and data analysis, including IC50 determination, were performed using GraphPad Prism software.

PAR-1Bα(h), sequence (Q7KZI7 1-725 isoform Q7KZI7-4): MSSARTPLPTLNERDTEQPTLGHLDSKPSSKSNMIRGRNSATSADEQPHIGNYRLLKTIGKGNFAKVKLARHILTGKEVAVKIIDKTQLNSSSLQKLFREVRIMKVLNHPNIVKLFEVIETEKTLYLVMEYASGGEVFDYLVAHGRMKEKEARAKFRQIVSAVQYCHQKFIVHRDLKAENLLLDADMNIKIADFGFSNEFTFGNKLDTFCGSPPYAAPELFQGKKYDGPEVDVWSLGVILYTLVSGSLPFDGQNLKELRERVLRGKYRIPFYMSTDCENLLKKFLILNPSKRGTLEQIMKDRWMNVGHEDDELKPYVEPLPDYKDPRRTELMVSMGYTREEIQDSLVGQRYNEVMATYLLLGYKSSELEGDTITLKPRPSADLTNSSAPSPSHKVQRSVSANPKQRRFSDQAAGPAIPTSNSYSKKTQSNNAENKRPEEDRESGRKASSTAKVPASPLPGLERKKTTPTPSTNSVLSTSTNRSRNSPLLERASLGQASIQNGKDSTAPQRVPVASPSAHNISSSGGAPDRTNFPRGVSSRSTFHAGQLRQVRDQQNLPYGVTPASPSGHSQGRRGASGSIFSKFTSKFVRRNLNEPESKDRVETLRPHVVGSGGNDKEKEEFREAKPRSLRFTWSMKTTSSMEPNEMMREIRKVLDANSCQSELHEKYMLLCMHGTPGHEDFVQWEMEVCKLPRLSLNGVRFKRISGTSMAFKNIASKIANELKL
BRAF (V600E), sequence (P15056 whole entry V600E): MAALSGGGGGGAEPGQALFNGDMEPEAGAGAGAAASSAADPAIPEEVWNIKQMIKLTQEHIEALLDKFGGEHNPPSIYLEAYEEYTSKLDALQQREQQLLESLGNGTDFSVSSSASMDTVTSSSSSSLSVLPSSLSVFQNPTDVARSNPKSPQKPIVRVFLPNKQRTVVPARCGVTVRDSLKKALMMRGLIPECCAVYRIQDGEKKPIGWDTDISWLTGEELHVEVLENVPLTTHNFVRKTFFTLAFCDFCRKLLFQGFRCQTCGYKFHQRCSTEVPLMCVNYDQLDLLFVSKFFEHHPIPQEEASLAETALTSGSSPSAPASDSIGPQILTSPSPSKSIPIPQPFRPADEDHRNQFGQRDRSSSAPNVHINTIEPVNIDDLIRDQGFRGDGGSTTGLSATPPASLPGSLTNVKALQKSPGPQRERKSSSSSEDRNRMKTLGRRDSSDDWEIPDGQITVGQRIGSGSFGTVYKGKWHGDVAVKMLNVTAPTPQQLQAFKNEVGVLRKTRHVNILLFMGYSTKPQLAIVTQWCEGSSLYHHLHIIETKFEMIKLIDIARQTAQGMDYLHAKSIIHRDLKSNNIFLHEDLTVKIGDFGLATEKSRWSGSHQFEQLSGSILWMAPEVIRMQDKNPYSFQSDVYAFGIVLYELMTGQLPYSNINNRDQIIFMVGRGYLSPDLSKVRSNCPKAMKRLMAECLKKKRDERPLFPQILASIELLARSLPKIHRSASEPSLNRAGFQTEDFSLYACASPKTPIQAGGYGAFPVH
Bmx(h), sequence (P51813 whole entry): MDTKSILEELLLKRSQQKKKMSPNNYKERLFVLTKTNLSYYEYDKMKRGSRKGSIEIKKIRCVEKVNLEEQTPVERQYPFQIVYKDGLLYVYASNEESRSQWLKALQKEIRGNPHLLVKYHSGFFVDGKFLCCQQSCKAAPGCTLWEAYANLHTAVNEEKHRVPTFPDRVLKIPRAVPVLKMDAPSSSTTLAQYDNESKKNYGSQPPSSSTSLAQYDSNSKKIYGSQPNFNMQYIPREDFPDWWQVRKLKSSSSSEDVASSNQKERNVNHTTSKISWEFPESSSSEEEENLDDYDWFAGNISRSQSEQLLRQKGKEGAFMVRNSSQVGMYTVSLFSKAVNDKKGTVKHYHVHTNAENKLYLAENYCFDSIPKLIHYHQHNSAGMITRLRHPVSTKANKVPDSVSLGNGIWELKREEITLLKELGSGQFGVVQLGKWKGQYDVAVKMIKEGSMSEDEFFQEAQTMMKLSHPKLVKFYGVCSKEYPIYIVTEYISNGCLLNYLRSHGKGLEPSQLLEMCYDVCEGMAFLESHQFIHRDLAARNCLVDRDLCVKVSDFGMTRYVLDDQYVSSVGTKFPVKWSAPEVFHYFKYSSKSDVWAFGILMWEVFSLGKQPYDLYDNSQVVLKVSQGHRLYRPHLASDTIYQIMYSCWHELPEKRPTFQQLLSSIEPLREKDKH
IGF-1R(h), sequence (P08069 31-1367): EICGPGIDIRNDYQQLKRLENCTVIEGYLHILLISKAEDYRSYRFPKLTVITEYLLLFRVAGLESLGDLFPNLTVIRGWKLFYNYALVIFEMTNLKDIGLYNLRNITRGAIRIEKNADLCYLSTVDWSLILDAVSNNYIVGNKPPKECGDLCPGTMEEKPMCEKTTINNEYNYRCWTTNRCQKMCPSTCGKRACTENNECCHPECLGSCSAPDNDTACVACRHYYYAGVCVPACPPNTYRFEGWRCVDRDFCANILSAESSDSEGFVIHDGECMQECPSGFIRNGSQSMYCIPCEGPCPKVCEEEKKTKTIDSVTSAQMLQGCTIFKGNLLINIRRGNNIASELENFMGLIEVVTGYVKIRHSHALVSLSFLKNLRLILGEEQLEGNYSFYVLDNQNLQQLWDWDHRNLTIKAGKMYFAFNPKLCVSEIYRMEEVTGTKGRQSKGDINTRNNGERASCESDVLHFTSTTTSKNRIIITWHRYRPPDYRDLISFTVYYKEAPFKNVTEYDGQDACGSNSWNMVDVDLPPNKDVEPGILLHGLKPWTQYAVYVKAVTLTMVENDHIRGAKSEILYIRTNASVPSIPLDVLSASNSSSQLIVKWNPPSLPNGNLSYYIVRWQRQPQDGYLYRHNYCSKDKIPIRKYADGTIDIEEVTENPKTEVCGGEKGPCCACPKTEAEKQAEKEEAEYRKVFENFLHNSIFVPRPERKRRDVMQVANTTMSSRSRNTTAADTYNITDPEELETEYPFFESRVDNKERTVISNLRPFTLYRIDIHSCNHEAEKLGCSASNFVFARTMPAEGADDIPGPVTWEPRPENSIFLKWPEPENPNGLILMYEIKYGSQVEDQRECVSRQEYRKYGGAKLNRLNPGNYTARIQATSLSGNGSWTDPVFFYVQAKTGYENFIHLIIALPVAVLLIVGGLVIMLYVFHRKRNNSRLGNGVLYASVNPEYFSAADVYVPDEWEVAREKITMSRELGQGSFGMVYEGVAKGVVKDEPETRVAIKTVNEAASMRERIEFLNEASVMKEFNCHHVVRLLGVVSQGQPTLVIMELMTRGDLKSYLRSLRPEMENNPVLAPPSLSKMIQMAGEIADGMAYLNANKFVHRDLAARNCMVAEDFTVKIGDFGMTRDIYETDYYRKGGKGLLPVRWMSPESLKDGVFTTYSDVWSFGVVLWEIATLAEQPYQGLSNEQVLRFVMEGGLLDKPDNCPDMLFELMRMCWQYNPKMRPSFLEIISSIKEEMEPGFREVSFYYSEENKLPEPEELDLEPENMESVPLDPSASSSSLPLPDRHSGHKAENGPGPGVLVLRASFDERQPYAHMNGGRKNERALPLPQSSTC
CaMKIIβ(h), sequence (Q13554 whole entry): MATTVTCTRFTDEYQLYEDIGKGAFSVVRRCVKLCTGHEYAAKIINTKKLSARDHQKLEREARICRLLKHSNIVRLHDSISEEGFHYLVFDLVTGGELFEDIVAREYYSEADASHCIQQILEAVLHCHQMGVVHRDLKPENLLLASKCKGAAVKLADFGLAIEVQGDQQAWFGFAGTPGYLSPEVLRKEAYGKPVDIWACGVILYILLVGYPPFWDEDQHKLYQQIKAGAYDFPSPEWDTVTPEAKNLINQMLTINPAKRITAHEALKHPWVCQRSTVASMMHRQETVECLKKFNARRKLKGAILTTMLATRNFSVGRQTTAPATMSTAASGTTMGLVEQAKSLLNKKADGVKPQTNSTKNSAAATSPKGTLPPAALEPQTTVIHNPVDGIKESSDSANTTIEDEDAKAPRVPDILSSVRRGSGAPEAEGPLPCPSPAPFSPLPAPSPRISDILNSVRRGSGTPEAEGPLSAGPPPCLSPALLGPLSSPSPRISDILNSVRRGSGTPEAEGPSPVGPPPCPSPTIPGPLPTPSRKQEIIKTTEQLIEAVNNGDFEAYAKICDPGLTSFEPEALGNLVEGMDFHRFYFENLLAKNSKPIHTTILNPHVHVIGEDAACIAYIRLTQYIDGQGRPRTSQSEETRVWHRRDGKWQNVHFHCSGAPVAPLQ
NEK2(h), sequence (P51955 whole entry): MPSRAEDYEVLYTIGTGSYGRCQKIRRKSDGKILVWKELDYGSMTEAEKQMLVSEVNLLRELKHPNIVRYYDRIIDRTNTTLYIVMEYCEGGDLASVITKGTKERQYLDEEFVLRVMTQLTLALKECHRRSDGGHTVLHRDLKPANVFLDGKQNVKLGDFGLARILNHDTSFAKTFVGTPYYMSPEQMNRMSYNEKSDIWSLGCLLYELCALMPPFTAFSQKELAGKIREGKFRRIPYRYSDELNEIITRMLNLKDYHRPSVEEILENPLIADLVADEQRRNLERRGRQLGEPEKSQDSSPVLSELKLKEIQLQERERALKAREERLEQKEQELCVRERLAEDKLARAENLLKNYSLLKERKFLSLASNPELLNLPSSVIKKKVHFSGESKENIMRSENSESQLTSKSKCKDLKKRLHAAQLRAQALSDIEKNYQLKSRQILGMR

`O=C(Nc1cc(Nc2ncccc2-c2ncnc3[nH]cnc23)ccc1F)c1cc(C(F)(F)F)cc(C(F)(F)F)c1` [SJ-C1044, N-(5-(3-(9H-purin-6-yl)pyridin-2-ylamino)-2-fluorophenyl)-3,5-bis(trifluoromethyl)benzamide] showed an inhibition at 10 µM (EphB2(h)) of -8%, an IC50 (ARAF) of over 10000 nM and an inhibition at 10 µM (ARAF; Table S1 no. 8) of 44%. For the same compound, the inhibition at 10 µM (ARAF; second A-Raf(h) entry, Table S1 no. 62) was -6%, the inhibition at 10 µM (IGF-1R(h)) was -24% and the inhibition at 10 µM (PI3Kinase(p110a/p85a)(h)) was 23%. It also gave an inhibition at 10 µM (PKBα(h)) of 15%, an inhibition at 10 µM (CaMKIIβ(h)) of -5% and an inhibition at 10 µM (EphB4(h)) of -6%. The inhibition at 10 µM (CaMKIV(h)) was 2%, the inhibition at 10 µM (BRAF (V600E)) was 80% and the inhibition at 10 µM (NEK2(h)) was -4%. The IL-10 protein expression (IL-10) was 33 % CTL, the inhibition at 10 µM (Bmx(h)) was -1% and the “CD31 staining (angiogenesis)” value (MC38 tumor tissue) was “reduced”. For the same compound, the “CD163+ or CD206+ staining (M2 macrophages)” value (MC38 tumor tissue) was “significant decrease”, the “F4/80+ staining intensity (pan macrophage marker)” value (MC38 tumor tissue) was “notably reduced” and the “infiltration of CD8+ T cells” value (MC38 tumor tissue) was “increase”. For the same compound, the “population of FOXP3+ cells” value (MC38 tumor tissue) was “reducing”, the inhibition at 10 µM (PAR-1Bα(h)) was 3% and the TGI ([1]; 20 mg/kg po QD) was 72%. It also gave a TGI ([1]; 40 mg/kg po QD) of 87%, a TGI ([1]; 80 mg/kg po QD) of 107% and a TGI ([2]; 20 mg/kg po QD) of 50%. The TGI ([2]; 40 mg/kg po QD) was 63%, the TGI ([2]; 80 mg/kg po QD) was 66% and the TGI ([3]; 20 mg/kg po QD) was 58%. For the same compound, the TGI ([3]; 40 mg/kg po QD) was 94%, the TGI ([3]; 80 mg/kg po QD) was 117% and the GI50 (HT29 (BRAF V600E)) was 247 nM.
